Measured values: patent US20250092065A1, “2-(INDAZOL-5-YL)-6-(PIPERIDIN-4-YL)-1,7-NAPHTHYRIDINE DERIVATIVES AND RELATED COMPOUNDS AS MODULATORS FOR SPLICING NUCLEIC ACIDS AND FOR THE TREATMENT OF PROLIFERATIVE DISEASES” (REMIX THERAPEUTICS INC., priority 2022, published 2025)
pIC50: −log10 of the molar value. Structures can show the parent of a compound that is named as a salt.

System: HTT
Experiment: HiBiT protein abundance assay, HTT (K562 HiBiT knock-in)
Assay type: cell-based, human
Settings: HiBiT knock-in K562 cells, 24 hours, top dose 10 μM
In short: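 Steps: seed HiBiT knock-in K562 cells; add compound in 10-point 3-fold series from 10 μM final; incubate 24 h, 37 °C; add lytic HiBiT reagent, shake 5 min, wait 10 min; read luminescence. Normalize to parental K562 and DMSO controls, fit 4PL, take IC50.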

Structure (SMILES)	pIC50
C[C@H]1CN(c2cc(F)c3nc(-c4cc(F)c5nn(C)cc5c4)ccc3c2)C[C@H](C)N1 (single isomer, unassigned) [Compound 760]	6.00 to 7.00
C[C@H]1CN(c2cc(F)c3nc(-c4cc5cn(C)nc5cc4O)ccc3c2)C[C@H](C)N1 (single isomer, unassigned) [Compound 770]	> 7.00
Cc1cn2nc(-c3ccc4cc(N5C[C@H](C)N[C@@H](C)C5)cc(F)c4n3)cc(C)c2n1 (single isomer, unassigned) [Compound 799]	6.00 to 7.00
Cc1c(O)c(-c2ccc3cc(N4C[C@H](C)N[C@@H](C)C4)cc(F)c3n2)cc2cn(C)nc12 (single isomer, unassigned) [Compound 800, 2,2,2-trifluoroacetate]	> 7.00
Cc1nc(-c2cc3cn(C)nc3cc2O)nc2ccc(N3C[C@H](C)N[C@@H](C)C3)cc12 (single isomer, unassigned) [Compound 806]	6.00 to 7.00
Cc1nc(-c2cc3cn(C)nc3c(C)c2O)nc2ccc(N3C[C@H](C)N[C@@H](C)C3)cc12 (single isomer, unassigned) [Compound 807]	6.00 to 7.00
Cn1cc2cc(-c3cc4ccc(C5CCNCC5)nc4cn3)c(O)cc2n1 [Compound 104]	5.00 to 6.00
Cn1cc2cc(-c3ccc4nc(N5CC[C@H](NC6CCC6)C5)ccc4n3)c(O)cc2n1 [Compound 156]	> 7.00
CC(C)N[C@H]1CCN(c2ccc3nc(-c4cc5cn(C)nc5cc4O)ccc3n2)C1 [Compound 171]	> 7.00
Cc1cn2nc(-c3ccc4nc(N5CCC(NC(C)(C)C)C5)ccc4n3)cc(C)c2n1 (stereo not drawn) [Compound 186]	> 7.00
Cn1cc2cc(-c3ccc4nc(N5CC[C@H](NCC6CC6)C5)ccc4n3)c(O)cc2n1 [Compound 194]	> 7.00
CN(C)C1CCN(c2ccc3nc(-c4cc5cn(C)nc5c(F)c4O)ncc3c2)CC1 [Compound 757, 5-{6-[4-(dimethylamino)piperidin-1-yl]quinazolin-2-yl}-7-fluoro-2-methylindazol-6-ol]	5.00 to 6.00
C[C@@H]1CN(c2cc(F)c3nc(-c4cc(F)c5nn(C)cc5c4)ccc3c2)C[C@H](C)N1 [Compound 758, 6-[(3R,5S)-3,5-dimethylpiperazin-1-yl]-8-fluoro-2-(7-fluoro-2-methylindazol-5-yl)quinoline]	6.00 to 7.00
C[C@@H]1CN(c2cc(F)c3nc(-c4cc5cn(C)nc5c(F)c4O)ccc3c2)C[C@H](C)N1 [Compound 763, 5-{6-[(3R,5S)-3,5-dimethylpiperazin-1-yl]-8-fluoroquinolin-2-yl}-7-fluoro-2-methylindazol-6-ol hydrochloride]	> 7.00
C[C@@H]1CN(c2cc(F)c3nc(-c4cc5cn(C)nc5cc4O)ccc3c2)C[C@H](C)N1 [Compound 768, 5-{6-[(3R,5S)-3,5-dimethylpiperazin-1-yl]-8-fluoroquinolin-2-yl}-2-methylindazol-6-ol hydrochloride]	5.00 to 6.00
Cc1cn2cc(-c3ncc4cc(N5C[C@@H](C)N[C@@H](C)C5)ccc4n3)cc(F)c2n1 [Compound 773, 6-[(3R,5S)-3,5-dimethylpiperazin-1-yl]-2-{8-fluoro-2-methylimidazo[1,2-a]pyridin-6-yl}quinazoline]	6.00 to 7.00
Cc1cn2cc(-c3nc(C(=O)NC4CCC4)c4cc(N5C[C@@H](C)N[C@@H](C)C5)ccc4n3)cc(F)c2n1 [Compound 779, N-cyclobutyl-6-[(3R,5S)-3,5-dimethylpiperazin-1-yl]-2-{8-fluoro-2-methylimidazo[1,2-a]pyridin-6-yl}quinazoline-4-carboxamide]	6.00 to 7.00
Cc1c(O)c(-c2nc(C(N)=O)c3cc(N4C[C@H](C)N[C@@H](C)C4)ccc3n2)cc2cn(C)nc12 [Compound 796]	6.00 to 7.00
C[C@H]1CN(c2ccc3nc(-c4cc5cn(C)nc5cc4O)nc(C(N)=O)c3c2)C[C@H](C)N1 [Compound 797]	6.00 to 7.00
Cc1cn2cc(-c3ncc4cc(N5C[C@H](C)N[C@@H](C)C5)ccc4n3)cc(F)c2n1 [Compound 803, 6-[(3S,5S)-3,5-dimethylpiperazin-1-yl]-2-{8-fluoro-2-methylimidazo[1,2-a]pyridin-6-yl}quinazoline]	6.00 to 7.00
Cc1c(O)c(-c2ccc3cc(N4CCNC5(CC5)C4)cc(F)c3n2)cc2cn(C)nc12 [Compound 805, 5-(6-{4,7-diazaspiro[2.5]octan-7-yl}-8-fluoroquinolin-2-yl)-2,7-dimethylindazol-6-ol]	> 7.00
